Data published in patent US11851681B2, “Cell preparation method” (KYOTO PREFECTURAL PUBLIC UNIVERSITY CORPORATION, priority 2015, dated 2023).
“Also recorded” adds a separate entry of the source.

Columns and labels:
[1] = test system: human dermal fibroblasts; HDFs; assay: Real-time RT-PCR of Osteocalcin and Alkaline Phosphatase, Example 3; type: cell-based; settings: each compound 2 μM in calcification induction medium; day 24; FIG. 3
Description: The concentrations of the compounds are as follows: • D4476: 2 μM • SB431542: 2 μM • ALK5 inhibitor II: 2 μM.

[2] = test system: human adipose derived stem cells; ADSC; settings: calcification induction medium added with ALK5 inhibitor II; day 19; FIG. 5
Description: (§1) The calcification induction medium is 10% FBS DMEM added with 50 μg/ml ascorbic acid, 10 mM β-glycerophosphate and 100 nM Dexamethasone. The culture medium was exchanged with a fresh one every 3-4 days, and culturing was performed until day 19.
(§2) On day 19, the culture medium was removed from each well by suction, washed with PBS(−), and fixed with 10% formalin. It was washed 3 times with sterile distilled water. Thereafter, Alizarin Red S staining solution was added, and the mixture was incubated at room temperature for 15 min.

[3] = test system: human dermal fibroblasts; HDFs; settings: calcification induction medium added with ALK5 inhibitor II; day 19; FIG. 5
Description: as §1, §2

[4] = test system: Human normal skin-derived fibroblasts (HDFs); assay: Alizarin Red S and ALP staining, absorbance, TGF-β pathway inhibitor panel, Examples 31-32; type: cell-based
Description: On day 21, the culture medium was removed from a part of the well, washed with PBS(-), and fixed with a fixative. It was washed 3 times with sterile distilled water. […] In the experiment of Example 31, the solution after staining with the Alizarin Red S staining solution was collected in a 96 well plate and the absorbance (OD 550 nm) was measured with an absorption spectrometer.

HDF45, HDF69, HDF22 = settings: 4 μM in calcification induction medium; day 10 (ALP), day 15 (Alizarin Red S); FIG. 37, 38
Excerpt: (§3) It was washed 3 times with sterile distilled water.
as §3

[5] = test system: Human normal skin-derived fibroblasts (HDFs); assay: Real-time RT-PCR of ALP, Osteocalcin, Bonesialoprotein, Example 35; type: cell-based; settings: calcification induction medium added with ALK5 i II 4 μM; day 18; FIG. 39
Description: The concentrations of the small molecule compound or cytokine added are as follows. • ALK5 i II: 4 μM • 1α,25-dihydroxy Vitamin D3 (VD3): 5 nM • Human insulin-like growth factor-1 (IGF-1): 100 ng/ml.

[6] = test system: Human normal skin-derived fibroblasts (HDFs); assay: Real-time RT-PCR of UCP1, four inhibitors, Example 39; type: cell-based
Description: The addition concentration of the compound was 4 μM, 8 μM, 12 μM or 16 μM. […] Thereafter, in Day 9-Day 14, culturing was performed in a medium free of ALK5 inhibitor II, LY2157299, SB431542, D4476.

[7] = test system: human dermal fibroblasts; HDFs; settings: cartilage induction medium added with 2 M ALK5 inhibitor II; day 18; FIG. 9
Description: Once every 2 days, the culture medium was exchanged with a fresh one, and culturing was performed until day 18. The cells were washed twice with PBS(−), once with 3% acetic acid solution, an alcian blue staining solution (PH2.5) (Nacalai Tesque) was added and the cells were stained for 1 hr at room temperature. The cells were washed 3 times with PBS(−) and observed under a microscope.

[8] = test system: human dermal fibroblasts; HDFs; settings: 4 μM in calcification induction medium; day 18; FIG. 22
Description: (§4) The calcification induction medium is a 10% FBS DMEM added with 50 μg/ml ascorbic acid, 10 mM β-glycerophosphate and 100 nM Dexamethasone. The culture medium was exchanged with a fresh one every 3-4 days, and culturing was performed until day 18.
On day 18, the culture medium was removed from each well by suction, washed with PBS, and total RNA was extracted from the cell with ISOGEN II. cDNA was synthesized from the RNA by using Rever Tra Ace qPCR RT Master Mix. This cDNA was admixed with Real-time PCR Master Mix, and primers specific to Osteocalcin, Alkaline Phosphatase or β-actin gene, and Taqman probe. qRT-PCR was performed using AB7300 Real-time PCR system. The mRNA level of Osteocalcin (Oc) and Alkaline Phosphatase (ALP) gene was quantified as a ratio to β-actin gene mRNA, and calculated with the value of fibroblast cultured in a calcification induction medium as 1.

[9] = test system: human dermal fibroblasts; HDFs; settings: 4 μM in MDI medium; day 14; FIG. 24
Description: MDI medium (3-isobutyl-1-methylxanthine/dexamethasone/insulin-containing medium) is 10% FBS DMEM added with 0.5 mM 3-isobutyl-1-methylxanthine (IBMX), 0.5 μM dexamethasone, and 1 μg/mL Insulin. The culture medium was exchanged with a fresh one every 3-4 days, and culturing was performed until day 14.
On day 14, the culture medium was removed from each well by suction, washed with PBS, and total RNA was extracted from the cell with ISOGEN II. cDNA was synthesized from the RNA by using Rever Tra Ace qPCR RT Master Mix. This cDNA was admixed with Real-time PCR Master Mix, and primers specific to AdipoQ, FABP4 or β-actin gene, and Taqman probe. qRT-PCR was performed using AB7300 Real-time PCR system. The mRNA level of AdipoQ and FABP4 gene was quantified as a ratio to β-actin gene mRNA level, and calculated with the value of fibroblast cultured in MDI medium as 1.

[10] = test system: human gingival fibroblasts; GFs; settings: 4 μM in calcification induction medium; day 18; FIG. 27
Description: as §4
On day 18, the culture medium was removed from each well by suction, washed with PBS(−), and fixed with 10% formalin. It was washed 3 times with sterile distilled water. The well after Alizarin Red S staining was washed with sterile distilled water, and photographed with an inverted microscope at ×40 magnification.

[11] = test system: human gingival fibroblasts; GFs; settings: 4 μM in calcification induction medium; day 18; FIG. 28
Description: as §4
On day 18, the culture medium was removed from each well by suction, washed with PBS(−), and fixed with a fixative. It was washed 3 times with sterile distilled water. The well after ALP staining was washed with sterile distilled water, and photographed with an inverted microscope at ×40 magnification.

[12] = description, conditions not given

Cc1cccc(-c2n[nH]cc2-c2ccc3ncccc3n2)n1 [ALK5 inhibitor II, 2-(3-(6-Methylpyridin-2-yl)-1H-pyrazol-4-yl)-1,5-naphthyridine]
conversion of human fibroblast to osteoblast, Osteocalcin and Alkaline Phosphatase mRNA [1]: converted to osteoblast expressing osteocalcin and alkaline phosphatase gene; also recorded: most efficiently converts fibroblast to osteoblast
conversion to osteoblast, Alizarin Red S staining and OD550, fat-derived mesenchymal stem cell [2]: converted to osteoblast having calcified bone matrix production ability
conversion to osteoblast, Alizarin Red S staining and OD550, human fibroblast [3]: converted to osteoblast having calcified bone matrix production ability
conversion of human fibroblast to osteoblast, Alizarin Red S / ALP staining and absorbance ([4]; calcification induction medium, compounds 1 or 4 μM, TGF-β 10 ng/ml, day 21, FIG. 35, 36, listed as ALK5 i II): can strongly convert human fibroblast to osteoblast; also recorded: can most strongly convert human fibroblast to osteoblast
efficiency in converting fibroblast to osteoblast (summary statement) [4, 12]: highly efficient in converting fibroblast to osteoblast
conversion of fibroblasts from different individuals to osteoblasts, ALP and Alizarin Red S staining (HDF45, HDF69, HDF22): are converted to osteoblasts
mRNA expression of ALP [5]: significantly increased
mRNA expression of BSP, compared to calcification induction medium [5]: increased
mRNA expression of OC, compared to calcification induction medium [5]: increased
conversion of fibroblast to brown adipocyte, UCP1 mRNA ([6]; 4 μM, 8 μM, 12 μM or 16 μM in adipocyte induction medium Day 1 to Day 8, then compound-free to day 14, FIG. 43): converted fibroblast to brown adipocyte strongly expressing UCP1 gene; also recorded: most strongly induced
efficiency in converting fibroblast to brown adipocyte (summary statement) [6, 12]: highly efficient in converting fibroblast to brown adipocyte
conversion of fibroblast to cartilage, alcian blue staining [7]: can convert human normal skin-derived fibroblast to cartilage that produces cartilage matrix stained blue
conversion of fibroblast to osteoblast, Osteocalcin and ALP mRNA [8]: converted human skin-derived fibroblast to osteoblast expressing osteocalcin gene and ALP gene
conversion of fibroblast to white adipocyte, AdipoQ and FABP4 mRNA [9]: converted human skin-derived fibroblast to white adipocyte expressing AdipoQ gene and FABP4 gene
conversion of gingival-derived fibroblast to osteoblast, Alizarin Red S staining [10]: converted human gingival-derived fibroblast to osteoblast that produces a large amount of calcified bone matrix
conversion of gingival-derived fibroblast to osteoblast, ALP staining [11]: converted human gingival-derived fibroblast to osteoblast having high ALP activity
